Test results as given in patent publication US7265155B2 (NBS Pharmaceuticals, Inc., priority 1996, dated 2007).
Values joined by “and” are separate entries in the source; they are usually repeats but may differ in a detail not shown here. Identical values can stand only once. “Also recorded” adds a separate entry of the source. Like-named read-outs stand apart in the source and are kept apart here. Marks after values point to notes of the source that are not given here.

What was measured:
[1] = tested on: Frings audiogenic seizure-susceptible mouse; assay: Frings audiogenic seizure-susceptible mouse model of epilepsy; format: in vivo; details: for ED50: Mus musculus
From the text: One useful model is provided by the Frings audiogenic seizure-susceptible mouse, a model of reflex epilepsy. At the time of testing, individual mice are placed into a round Plexiglas chamber and exposed to a sound stimulus of 110 decibels, 11 kHz, for 20 seconds. Animals not displaying tonic hindlimb extensions were considered protected. In addition, the seizure score for each mouse can be recorded as: (1) running for less than 10 seconds; (2) running for greater than 10 seconds; (3) clonic activity of limbs and/or vibrissae; (4) forelimb extension/hindlimb flexion; and (5) hindlimb extension.
(§1) The average seizure score can be calculated for each group of mice employed in the dose-response study. At each dose, mice are also tested on a rotarod for testing of motor impairment (toxicity). Testing for motor impairment on the rotarod involves placing a mouse for a three-minute trial period on a one-inch diameter rod rotating at six revolutions per minute. If the mouse falls off of the rotating rod three times within the three-minute time period, it is considered a toxic response.

[2] = cited from earlier work
chronic spinalized rat [3] = assay: Spasticity scores elicited by a metal probe in chronic spinally transected rats; format: in vivo; details: 300 mg/kg i.p.
From the text: In these studies, male albino Holtzman-derived rats (Harlan Sprague-Dawley Laboratories) weighing 270-530 grams were used as subjects. The animals were housed independently and had continuous access to food and water throughout the experiments.
All procedures were reviewed and approved by the Institutional Animal Care and Use Committee. Animals were anesthetized using a mixture of isoflurane and oxygen at a flow rate of 4 liters/minute.
The rats were then placed in a stereotaxic frame and anesthesia was maintained. An incision was made so that the paraspinal muscles could be retracted and a laminectomy performed between T6-T9. A one- to two-millimeter portion of the spinal cord was removed by evacuation and replaced with Gel foam to reduce bleeding, after which the incision was closed in layers.
Following the transection, rats were placed in a room in which the ambient temperature was raised to about 80° F. with a space heater to maintain body temperature. On the following morning post-surgery, the hindquarters of the spinalized rats were bathed and their urine expressed manually by applying pressure to their bladders. Experiments were conducted between 21 and 28 days after surgery. For the first two weeks, these rats were given 0.25 ml of the antibiotic Sulfatrim Pediatric Suspension orally to prevent bladder infection.
Within approximately two weeks, all animals regained bladder control and were no longer given antibiotic treatment. Advokat, Brain Res. 684: 8 (1995). […]
Initial assessment of spasticity was performed by the subjective scoring method of rating the resulting spasticity response elicited with an innocuous stimulus, i.e., a metal probe, that was pressed against the lower abdomen at four specific sites. The spastic reaction was evaluated for each of the four trials using a scale ranging from zero (no spastic response in all four trials) to four (a maximum, tonic-clonic reaction elicited in all four trials). […] These raw or normalized scores were analyzed with a one-way repeated measures ANOVA.

chronic spinalized rat [4] = assay: Flexor reflex (EMG) in the chronic spinalized rat; format: in vivo; details: 300 mg/kg p.o.; 30, 60, 90 and 120 minutes post-administration
Protocol: With reference to FIG. 3, the polysynaptic flexor-reflex responses, to test stimuli which activate high-threshold afferents, were recorded as EMG activity from the ipsilateral hamstring muscle. Supramaximal electric shocks were applied to the hindpaw, and recording electrodes were placed in the biceps femoris semitendinosus muscle. Five sets of stimuli were made at each time point. The flexor reflex was recorded, in both the pre-drug and the post-drug periods, every 30 minutes once a stable baseline response was achieved. See Hao et al., Eur. J. Pharmacol. 191: 407 (1990).
Thus, the responses were determined in spinalized rats by observing the flexor-reflex response (FIG. 3) before treatment and at each of 30, 60, 90, and 120 minutes following administration of isovaleramide (300 mg/kg p.o.), baclofen (10 mg/kg s.c.) and vehicle (water, 12 ml/kg p.o.), respectively.
In FIG. 4, the responses from FIG. 3 and additional doses of isovaleramide and baclofen are converted to a total-area-under-the-curve format, covering the entire, two-hour measurement period. […] Between the drug-treated groups, no differences were found in total reduction of the flexor reflex over the two-hour period (pairwise multiple comparison, Student-Newman-Keuls method).

[5] = in vivo; cited from earlier work
[6] = Rotarod motor impairment (toxicity) in the Frings mouse; format: in vivo; details: Frings, mouse, in vivo
Protocol: as §1

Frings mouse = assay: as above; format: in vivo
Protocol: as §1

Q: Which results are given for `CC(C)CC(N)=O` [Isovaleramide, isovaleramide]?
A: Number Protected of Eight Mice Tested ([1]; 75 mg/kg i.p., 15 minutes): 1; Seizure Score ± S.E.M. ([1]; 75 mg/kg i.p., 15 minutes): 4.4 ± 0.6; Seizure Score ± S.E.M. ([1]; 100 mg/kg oral): 4.5 ± 0.5; Number Protected of Eight Mice Tested ([1]; 100 mg/kg oral, measured at 30 minutes): 1; Number Protected of Eight Mice Tested ([1]; 112.5 mg/kg i.p., 15 minutes): 2; Seizure Score ± S.E.M. ([1]; 112.5 mg/kg i.p., 15 minutes): 4.0 ± 0.6; Number Protected of Eight Mice Tested ([1]; 150 mg/kg i.p., 15 minutes): 6; Seizure Score ± S.E.M. ([1]; 150 mg/kg i.p., 15 minutes): 2.0 ± 0.6; Seizure Score ± S.E.M. ([1]; 200 mg/kg oral): 2.9 ± 0.8; Number Protected of Eight Mice Tested ([1]; 200 mg/kg oral, measured at 30 minutes): 4; Number Protected of Eight Mice Tested ([1]; 300 mg/kg i.p., 15 minutes): 8; Seizure Score ± S.E.M. ([1]; 300 mg/kg i.p., 15 minutes): 1.0 ± 0; Seizure Score ± S.E.M. ([1]; 300 mg/kg oral): 1.4 ± 0.5; Number Protected of Eight Mice Tested ([1]; 300 mg/kg oral, measured at 30 minutes): 7; Seizure Score ± S.E.M. ([1]; 600 mg/kg oral): 0.25 ± 0.25; Number Protected of Eight Mice Tested ([1]; 600 mg/kg oral, measured at 30 minutes): 8; Seizure Score ± S.E.M. ([1]; 1500 mg/kg oral): 0.6 ± 0.2; Number Protected of Eight Mice Tested ([1]; 1500 mg/kg oral, tested at 4 hours): 8^b; Seizure Score ± S.E.M. ([1]; 2000 mg/kg oral): 0 ± 0; Number Protected of Eight Mice Tested ([1]; 2000 mg/kg oral, tested at 4 hours, only seven mice tested): 7^b,d; ED50 ([1]; ip, 0.25 h, i.p., 15 minutes, read-out: ED50 for protection against tonic extension): 126 mg/kg; ED50 ([1]; oral, read-out: ED50 for protection): 186 mg/kg; time course of anticonvulsant activity ([1]; i.p.): noted as early as 15 minutes, but decreased substantially by two hours; seizure score, dose dependence ([1]; i.p., 15 minutes): dose-dependent reduction in seizure score; anticonvulsant activity when administered orally ([1]; oral): displayed anticonvulsant activity when administered orally; acute toxicity in vivo [2]: low acute toxicity in vivo; overt behavioral toxicity or motor impairment (chronic spinalized rat [3]): No overt behavioral toxicity or motor impairment was observed; reduction of spasticity scores (chronic spinalized rat [3]; 15, 30, 60 and 120 minutes post-administration): 45-65%; spasticity scores by the next day (chronic spinalized rat [3]; 1440 minutes (24 hours)): essentially returned to baseline values; magnitude of the flexor reflex (chronic spinalized rat [4]): reduce the magnitude of the flexor-reflex responses, at all time points; also recorded: significant decrease in the magnitude of the flexor reflex, comparable to that observed with baclofen; anxiolytic properties [5]: clinically useful anxiolytic properties; TD50 at 15 min ([6]; ip, 15 minutes, read-out: TD50 for rotarod impairment): 531 mg/kg; TD50 at 15 min ([6]; oral, read-out: TD50): 1010 mg/kg; Number Showing Toxicity of Eight Mice Tested (Frings mouse; 75 mg/kg i.p., 15 minutes): 0; Number Showing Toxicity of Eight Mice Tested (Frings mouse; 112.5 mg/kg i.p., 15 minutes): 0; Number Showing Toxicity of Eight Mice Tested (Frings mouse; 150 mg/kg i.p., 15 minutes): 0; Number Showing Toxicity of Eight Mice Tested (Frings mouse; 300 mg/kg i.p., 15 minutes): 1/8 and 1; Number Showing Toxicity of Eight Mice Tested (Frings mouse; 300 mg/kg oral, tested at 15 minutes): 1; Number Showing Toxicity of Eight Mice Tested (Frings mouse; 600 mg/kg i.p., 15 minutes): 4/8 and 4; Number Showing Toxicity of Eight Mice Tested (Frings mouse; 600 mg/kg oral, tested at 15 minutes): 1; Number Showing Toxicity of Eight Mice Tested (Frings mouse; 1000 mg/kg i.p., 15 minutes): 8/8 and 8; Number Showing Toxicity of Eight Mice Tested (Frings mouse; 1000 mg/kg oral, tested at 15 minutes): 5; Number Showing Toxicity of Eight Mice Tested (Frings mouse; 1500 mg/kg oral, tested at 15 minutes): 5; Number Showing Toxicity of Eight Mice Tested (Frings mouse; 2000 mg/kg oral, tested at 15 minutes, only seven mice tested): 7^d; rotarod performance in the Frings mouse (Frings mouse; doses up to 512 mg/kg i.p. 15 minutes before test): did not affect performance significantly; doses at which behavioral toxicity (inability to maintain balance on the rotarod) was displayed (Frings mouse; i.p.): > 300 mg/kg; doses at which no notable toxicity was observed (Frings mouse; i.p.): less than 300 mg/kg
